In experiment [1] the target is Hrh3 protein (Rattus norvegicus, UniProt Q5PPG3).
Experiment [2] deals with Histamine H3 receptor (Homo sapiens, UniProt Q9Y5N1).

Several values for one entry are separate records, joined by “and”; a condition that tells them apart may be missing. Equal entries are not always repeated.

Hrh3 protein, sequence (Q5PPG3 whole entry): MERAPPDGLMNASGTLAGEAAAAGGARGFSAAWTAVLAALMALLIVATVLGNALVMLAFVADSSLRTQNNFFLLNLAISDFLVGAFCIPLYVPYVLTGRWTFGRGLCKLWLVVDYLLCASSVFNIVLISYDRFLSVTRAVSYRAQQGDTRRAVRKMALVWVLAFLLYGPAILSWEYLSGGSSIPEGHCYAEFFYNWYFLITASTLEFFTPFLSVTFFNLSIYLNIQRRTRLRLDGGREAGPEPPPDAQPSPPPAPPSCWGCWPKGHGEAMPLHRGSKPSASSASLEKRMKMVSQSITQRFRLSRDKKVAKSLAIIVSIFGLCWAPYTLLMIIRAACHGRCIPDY
Histamine H3 receptor, sequence (Q9Y5N1 whole entry): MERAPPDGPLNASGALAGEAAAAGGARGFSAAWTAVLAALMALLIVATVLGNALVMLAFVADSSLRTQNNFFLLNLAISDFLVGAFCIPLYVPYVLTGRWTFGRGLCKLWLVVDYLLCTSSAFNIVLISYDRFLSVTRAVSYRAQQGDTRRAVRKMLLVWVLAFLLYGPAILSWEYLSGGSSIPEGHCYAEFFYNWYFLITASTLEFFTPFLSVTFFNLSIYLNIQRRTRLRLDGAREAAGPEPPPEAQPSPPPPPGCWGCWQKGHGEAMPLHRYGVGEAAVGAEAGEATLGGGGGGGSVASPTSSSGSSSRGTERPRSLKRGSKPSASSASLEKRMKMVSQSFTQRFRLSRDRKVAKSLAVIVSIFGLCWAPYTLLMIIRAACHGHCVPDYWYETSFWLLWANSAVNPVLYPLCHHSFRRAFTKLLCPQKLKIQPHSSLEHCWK

The Ki is a dissociation constant, usually derived from enzyme kinetics or from competition with a known ligand. On to `S=C(NC1CCCCC1)N1CCC(c2cnc[nH]2)CC1`, for which the Ki in experiment [1] is 10.2 nM and 4.2 nM. Consider `N=C(N)SCCc1cnc[nH]1` [2-(3H-imidazol-4-yl)ethylsulfanylmethanimidamide], for which the figures for the Ki in experiment [1] and in experiment [2] were 0.2 nM and 0.6 nM, respectively. In the case of `c1nc(CC2CCNCC2)c[nH]1` [4-(1H-imidazol-4-ylmethyl)piperidine], the Ki is 0.5 nM and 1.4 nM in experiment [1]; 1.6 nM in experiment [2].

In the case of `CN1CCN(C2=c3ccccc3=Nc3ccc(Cl)cc3N2)CC1` [6-chloro-10-(4-methylpiperazin-1-yl)-2,9-diazatricyclo[9.4.0.0^{3,8}]pentadeca-1,3(8),4,6,10,12,14-heptaene], in experiment [1], the Ki is 3000 nM and 1750 nM. Regarding `CNCCc1c[nH]cn1` [N(alpha)-Methylhistamine], the Ki was 1.2 nM and 1.5 nM in experiment [1]; 2.4 nM in experiment [2]. For the compound `NCCc1c[nH]cn1` [[3H]histamine], in experiment [1], the Ki is 12 nM and 13.2 nM.

These data come from BindingDB's records for PubMed 10869375 (R. W. Johnson Pharmaceutical Research Institute, 2000).
